Columns and labels:
ROCK1 = ROCK1 (Homo sapiens, UniProt Q13464); test: ROCK1 kinase enzymatic activity (HTRF, STK2 substrate); format: biochemical; details: ROCK1 kinase reaction 20 minutes at room temperature
Source text: (§1) The kinase activity data was expressed by comparing the kinase activity of the test compound and that of the blank group (containing only DMSO), and the IC50 value was obtained by curve fitting using Prism software (GraphPad7.0).

[1] = tested on: phosphorylation of myosin light chain T18/S19; test: In Cell Western for phosphorylation of myosin light chain in A7r5 cells; format: cell-based, rat
Source text: The rat smooth muscle cell line A7r5 was used, and the A7r5 cell culture conditions were DMEM containing 10% FBS. Phspho-MLC-T18/S19 specific antibody and a second detection antibody were used to detect the phosphorylation level of myosin light chain by In Cell Western. Cells treated with positive compounds were used as positive controls, while the group without compounds but with compound solvents was used as negative controls. DRAQ5 stained cell nuclei were used as internal references. GraphPad Prism 7.0 software was used, and fitting was carried out by using a non-linear regression curve with varying slopes to determine the absolute IC50 value.
On the first day, A7r5 cells were resuspended in serum-free medium and seeded into 384 wells of PDL coated transparent black plates at a density of 5000 cells per well. Serum starvation culture was performed for 4 hours, and the cells were incubated with the compound in serum-free medium for 1 hour. 50 µL of 8% PFA (polyformaldehyde) was added to each well and fixed at room temperature for 1 hour. The liquid in the wells was discard and 90 µL of ice methanol was added to each well to permeabilize the cells at 4 °C for 1 hour. Then, PBST (0.1% Tween20-PBS) was added using an automatic separator to wash three times. After patting the plate for drying, 50 µL blocking solution was added to each well for sealing at room temperature for 1 hour. The phspho-MLC-T18/S19 specific antibody was diluted with the blocking solution at a ratio of 1:200. After adding 20 µL to each well, incubation was carried out overnight at 4 °C with a sealed film.
On the second day, the liquid in the wells was discarded and PBST was added using an automatic separator to wash the plate 5 times. After patting the plate for drying, the second detection antibody was diluted with blocking solution at a ratio of 1:800 and DRAQ5 at a ratio of 1:1000. After adding 20 µL to each well, incubation was carried out at room temperature for 1 hour. Then, the liquid in the wells was discarded and PBST was added using an automatic separator to wash the plate 3 times, followed by adding ddH2O to wash the plate 3 times. After patting the plate for drying, it was scaned using a LICOR Odyssey near-infrared imaging scanner.

ROCK2 = ROCK2 (Homo sapiens, UniProt O75116); test: ROCK2 kinase enzymatic activity (HTRF, STK2 substrate); format: biochemical; details: ROCK2 kinase reaction 30 minutes at room temperature
Source text: as §1

Sequence of ROCK1 (Q13464 whole entry): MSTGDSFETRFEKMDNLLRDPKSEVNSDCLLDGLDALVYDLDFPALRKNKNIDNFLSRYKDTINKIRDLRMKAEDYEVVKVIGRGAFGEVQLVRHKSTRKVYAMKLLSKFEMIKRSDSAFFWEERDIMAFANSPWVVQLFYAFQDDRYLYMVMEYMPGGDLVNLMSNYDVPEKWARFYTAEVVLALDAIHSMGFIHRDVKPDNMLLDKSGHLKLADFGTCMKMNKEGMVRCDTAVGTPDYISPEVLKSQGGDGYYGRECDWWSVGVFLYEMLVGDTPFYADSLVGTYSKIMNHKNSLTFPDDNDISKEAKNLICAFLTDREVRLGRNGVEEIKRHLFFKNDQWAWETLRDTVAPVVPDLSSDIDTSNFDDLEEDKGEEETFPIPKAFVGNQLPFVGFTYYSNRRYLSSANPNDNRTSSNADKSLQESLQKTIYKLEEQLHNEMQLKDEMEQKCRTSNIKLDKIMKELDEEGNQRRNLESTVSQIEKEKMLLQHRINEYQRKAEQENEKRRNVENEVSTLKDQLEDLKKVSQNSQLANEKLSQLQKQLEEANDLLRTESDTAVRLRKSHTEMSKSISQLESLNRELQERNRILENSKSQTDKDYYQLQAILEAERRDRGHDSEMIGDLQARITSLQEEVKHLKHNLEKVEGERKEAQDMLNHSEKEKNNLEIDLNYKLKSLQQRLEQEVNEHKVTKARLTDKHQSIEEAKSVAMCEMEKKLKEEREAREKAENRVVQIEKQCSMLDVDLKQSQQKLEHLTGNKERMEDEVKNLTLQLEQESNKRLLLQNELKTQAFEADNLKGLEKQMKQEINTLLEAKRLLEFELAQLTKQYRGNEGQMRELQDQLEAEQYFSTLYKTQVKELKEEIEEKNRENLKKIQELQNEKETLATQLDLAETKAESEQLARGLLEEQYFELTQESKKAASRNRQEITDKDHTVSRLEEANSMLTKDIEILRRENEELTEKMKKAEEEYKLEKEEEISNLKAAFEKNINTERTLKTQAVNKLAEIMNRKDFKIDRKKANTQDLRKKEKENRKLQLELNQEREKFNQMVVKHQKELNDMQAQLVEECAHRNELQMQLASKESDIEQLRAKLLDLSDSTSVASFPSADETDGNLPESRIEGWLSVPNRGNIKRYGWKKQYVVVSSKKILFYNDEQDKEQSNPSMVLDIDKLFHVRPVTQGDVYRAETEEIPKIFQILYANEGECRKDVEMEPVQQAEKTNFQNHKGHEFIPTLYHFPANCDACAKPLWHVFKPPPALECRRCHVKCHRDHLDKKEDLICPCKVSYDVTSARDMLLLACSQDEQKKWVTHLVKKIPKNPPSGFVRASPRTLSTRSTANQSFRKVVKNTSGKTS
Sequence of ROCK2 (O75116 whole entry): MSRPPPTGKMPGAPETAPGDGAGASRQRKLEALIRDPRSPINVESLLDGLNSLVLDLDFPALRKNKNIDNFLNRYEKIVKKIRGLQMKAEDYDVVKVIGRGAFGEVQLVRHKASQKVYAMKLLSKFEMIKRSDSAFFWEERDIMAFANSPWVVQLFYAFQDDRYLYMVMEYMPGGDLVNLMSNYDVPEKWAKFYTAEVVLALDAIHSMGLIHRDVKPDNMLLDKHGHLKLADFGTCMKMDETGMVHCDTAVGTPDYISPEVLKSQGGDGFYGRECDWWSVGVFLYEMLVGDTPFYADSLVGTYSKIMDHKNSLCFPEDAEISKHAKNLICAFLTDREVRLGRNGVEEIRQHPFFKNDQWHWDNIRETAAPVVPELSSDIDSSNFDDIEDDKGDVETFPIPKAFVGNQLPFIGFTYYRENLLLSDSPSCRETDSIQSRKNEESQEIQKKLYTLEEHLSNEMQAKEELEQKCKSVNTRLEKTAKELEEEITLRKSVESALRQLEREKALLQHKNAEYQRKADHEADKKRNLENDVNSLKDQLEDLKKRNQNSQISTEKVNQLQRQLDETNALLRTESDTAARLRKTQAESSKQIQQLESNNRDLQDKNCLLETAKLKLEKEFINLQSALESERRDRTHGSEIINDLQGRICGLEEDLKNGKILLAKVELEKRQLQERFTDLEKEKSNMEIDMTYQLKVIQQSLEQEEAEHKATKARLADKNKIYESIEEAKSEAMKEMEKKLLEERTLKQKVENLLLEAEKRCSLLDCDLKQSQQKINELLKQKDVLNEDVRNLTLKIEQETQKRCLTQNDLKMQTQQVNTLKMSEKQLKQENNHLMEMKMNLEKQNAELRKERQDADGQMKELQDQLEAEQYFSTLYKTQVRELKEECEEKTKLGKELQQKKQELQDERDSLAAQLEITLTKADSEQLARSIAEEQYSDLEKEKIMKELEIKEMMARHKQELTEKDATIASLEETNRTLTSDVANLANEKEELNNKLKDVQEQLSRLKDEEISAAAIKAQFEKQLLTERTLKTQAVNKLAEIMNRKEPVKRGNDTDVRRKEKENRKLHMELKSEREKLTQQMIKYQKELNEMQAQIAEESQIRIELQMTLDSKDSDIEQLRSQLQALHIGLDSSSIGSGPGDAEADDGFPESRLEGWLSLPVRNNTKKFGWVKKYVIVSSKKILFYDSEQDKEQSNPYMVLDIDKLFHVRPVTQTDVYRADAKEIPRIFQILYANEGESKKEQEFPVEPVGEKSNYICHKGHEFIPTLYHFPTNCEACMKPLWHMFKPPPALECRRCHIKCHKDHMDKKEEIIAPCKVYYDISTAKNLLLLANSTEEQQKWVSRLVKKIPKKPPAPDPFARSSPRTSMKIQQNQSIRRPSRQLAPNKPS

SMILES: CC1CC([C@@H](CC#N)n2cc(-c3ncnc4[nH]ccc34)c(N)n2)C1 (stereo partly drawn) [Example 18, (3R)-3-(3-amino-4-(7H-pyrrolo[2,3-d]pyrimidin-4-yl)-1H-pyrazol-1-yl)-3-(-3-methylcyclobutyl)propanitrile]
- IC50 (ROCK1): < 5 nM
- IC50 ([1]; Rattus norvegicus, A7R5, 1 h): 296 nM
- IC50 (ROCK2): < 5 nM

SMILES: N#CC1CCCC1n1cc(-c2ncnc3[nH]ccc23)c(N)n1 (stereo not shown) [Example 7, 2-(3-amino-4-(7H-pyrrolo[2,3-d]pyrimidin-4-yl)-1H-pyrazol-1-yl)cyclopentane-1-nitrile]
- IC50 (ROCK1): < 50 nM
- IC50 ([1]; Rattus norvegicus, A7R5, 1 h): 1860 nM
- IC50 (ROCK2): < 50 nM

SMILES: CC1(C)CC(C(CC#N)n2cc(-c3ncnc4[nH]ccc34)c(N)n2)C1 (stereo not shown) [Example 15, 3-(3-amino-4-(7H-pyrrolo[2,3-d]pyrimidin-4-yl)-1H-pyrazol-1-yl)-3-(3,3-dimethylcyclobutyl)propionitrile]
- IC50 (ROCK1): < 5 nM
- IC50 ([1]; Rattus norvegicus, A7R5, 1 h): 215 nM
- IC50 (ROCK2): < 5 nM

SMILES: N#CCC1(n2cc(-c3ncnc4[nH]ccc34)c(N)n2)CC(F)(F)C1 [Example 6, 2-(1-(3-amino-4-(7H-pyrrolo[2,3-d]pyrimidin-4-yl)-1H-pyrazol-1-yl)-3,3-difluorocyclobutyl)acetonitrile]
- IC50 (ROCK1): < 5 nM
- IC50 ([1]; Rattus norvegicus, A7R5, 1 h): 102 nM
- IC50 (ROCK2): < 5 nM

SMILES: N#CCC1(n2cc(-c3ncnc4[nH]ccc34)c(N)n2)CCCCC1 [Example 5, 2-(1-(3-amino-4-(7H-pyrrolo[2,3-d]pyrimidin-4-yl)-1H-pyrazol-1-yl)cyclohexyl)acetonitrile]
- IC50 (ROCK1): < 5 nM
- IC50 ([1]; Rattus norvegicus, A7R5, 1 h): 111 nM
- IC50 (ROCK2): < 5 nM

SMILES: N#CCC1(n2cc(-c3ncnc4[nH]ccc34)c(N)n2)CC2(CCC2)C1 [Example 19, 2-(2-(3-amino-4-(7H-pyrrolo[2,3-d]pyrimidin-4-yl)-1H-pyrazol-1-yl)spiro[3.3]heptan-2-yl)acetonitrile]
- IC50 (ROCK1): < 5 nM
- IC50 ([1]; Rattus norvegicus, A7R5, 1 h): 167 nM
- IC50 (ROCK2): < 5 nM

SMILES: N#CC[C@H](C1CCC1)n1cc(-c2ncnc3[nH]ccc23)c(N)n1 [Example 27, (R)-3-(3-amino-4-(7H-pyrrolo[2,3-d]pyrimidin-4-yl)-1H-pyrazol-1-yl)-3-cyclobutylpropionitrile]
- IC50 (ROCK1): < 5 nM
- IC50 ([1]; Rattus norvegicus, A7R5, 1 h): 95 nM
- IC50 (ROCK2): < 5 nM

SMILES: N#CCC(C1CCCCC1)n1cc(-c2ncnc3[nH]ccc23)c(N)n1 (stereo not shown) [Example 14, 3-(3-amino-4-(7H-pyrrolo[2,3-d]pyrimidin-4-yl)-1H-pyrazol-1-yl)-3-cyclohexylpropionitrile]
- IC50 (ROCK1): < 5 nM
- IC50 ([1]; Rattus norvegicus, A7R5, 1 h): 175 nM
- IC50 (ROCK2): < 5 nM

SMILES: N#CCC1(n2cc(-c3ncnc4[nH]ccc34)c(N)n2)CS(=O)(=O)C1 [Example 2, 2-(3-(3-amino-4-(7H-pyrrolo[2,3-d]pyrimidin-4-yl)-1H-pyrazol-1-yl)-1,1-dioxothietan-3-yl)acetonitrile]
- IC50 (ROCK1): < 2 nM
- IC50 ([1]; Rattus norvegicus, A7R5, 1 h): 85 nM
- IC50 (ROCK2): < 1 nM

SMILES: N#CC[C@@H](C1CCC1)n1cc(-c2ncnc3[nH]ccc23)c(N)n1 [Example 28, (S)-3-(3-amino-4-(7H-pyrrolo[2,3-d]pyrimidin-4-yl)-1H-pyrazol-1-yl)-3-cyclobutylpropionitrile]
- IC50 (ROCK1): < 5 nM
- IC50 ([1]; Rattus norvegicus, A7R5, 1 h): 120 nM
- IC50 (ROCK2): < 5 nM

SMILES: N#CCC(C1CC2(CCCC2)C1)n1cc(-c2ncnc3[nH]ccc23)c(N)n1 (stereo not shown) [Example 22, 3-(3-amino-4-(7H-pyrrolo[2,3-d]pyrimidin-4-yl)-1H-pyrazol-1-yl)-3-(spiro[3.4]octan-2-yl)propionitrile]
- IC50 (ROCK1): < 5 nM
- IC50 ([1]; Rattus norvegicus, A7R5, 1 h): 264 nM
- IC50 (ROCK2): < 5 nM

SMILES: N#CCC(C1CC2(CCC2)C1)n1cc(-c2ncnc3[nH]ccc23)c(N)n1 (stereo not shown) [Example 20, 3-(3-amino-4-(7H-pyrrolo[2,3-d]pyrimidin-4-yl)-1H-pyrazol-1-yl)-3-(spiro[3.3]heptan-2-yl)propionitrile]
- IC50 (ROCK1): < 5 nM
- IC50 ([1]; Rattus norvegicus, A7R5, 1 h): 218 nM
- IC50 (ROCK2): < 5 nM

SMILES: N#CC[C@]1(n2cc(-c3ncnc4[nH]ccc34)c(N)n2)C[C@@H](C#N)C1 [Example 11, (1s,3s)-3-(3-amino-4-(7H-pyrrolo[2,3-d]pyrimidin-4-yl)-1H-pyrazol-1-yl)-3-(cyanomethyl)cyclobutane-1-carbonitrile]
- IC50 (ROCK1): < 10 nM
- IC50 ([1]; Rattus norvegicus, A7R5, 1 h): 466 nM
- IC50 (ROCK2): < 10 nM

SMILES: N#CCC(C1CC2(CC2)C1)n1cc(-c2ncnc3[nH]ccc23)c(N)n1 (stereo not shown) [Example 21, 3-(3-amino-4-(7H-pyrrolo[2,3-d]pyrimidin-4-yl)-1H-pyrazol-1-yl)-3-(spiro[2.3]hexan-5-yl)propionitrile]
- IC50 (ROCK1): < 5 nM
- IC50 ([1]; Rattus norvegicus, A7R5, 1 h): 185 nM
- IC50 (ROCK2): < 5 nM

SMILES: N#CCC(C1CCC2(CC2)C1)n1cc(-c2ncnc3[nH]ccc23)c(N)n1 (stereo not shown) [Example 23, 3-(3-amino-4-(7H-pyrrolo[2,3-d]pyrimidin-4-yl)-1H-pyrazol-1-yl)-3-(spiro[2.4]hept-5-yl)propionitrile]
- IC50 (ROCK1): < 5 nM
- IC50 ([1]; Rattus norvegicus, A7R5, 1 h): 195 nM
- IC50 (ROCK2): < 5 nM

SMILES: N#CC1CCCCC1n1cc(-c2ncnc3[nH]ccc23)c(N)n1 (stereo not shown) [Example 8, 2-(3-amino-4-(7H-pyrrolo[2,3-d]pyrimidin-4-yl)-1H-pyrazol-1-yl)cyclohexane-1-nitrile]
- IC50 (ROCK1): < 50 nM
- IC50 ([1]; Rattus norvegicus, A7R5, 1 h): 1940 nM
- IC50 (ROCK2): < 50 nM

SMILES: N#CC[C@H](C1CC1)n1cc(-c2ncnc3[nH]ccc23)c(N)n1 [Example 25, (R)-3-(3-amino-4-(7H-pyrrolo[2,3-d]pyrimidin-4-yl)-1H-pyrazol-1-yl)-3-cyclopropylpropionitrile]
- IC50 (ROCK1): < 5 nM
- IC50 ([1]; Rattus norvegicus, A7R5, 1 h): 75 nM
- IC50 (ROCK2): < 2 nM

SMILES: N#CC[C@]1(n2cc(-c3ncnc4[nH]ccc34)c(N)n2)C[C@H](C#N)C1 [Example 10, (1r,3r)-3-(3-amino-4-(7H-pyrrolo[2,3-d]pyrimidin-4-yl)-1H-pyrazol-1-yl)-3-(cyanomethyl)cyclobutane-1-carbonitrile]
- IC50 (ROCK1): < 2 nM
- IC50 ([1]; Rattus norvegicus, A7R5, 1 h): 48 nM
- IC50 (ROCK2): < 1 nM

SMILES: N#CC[C@@H](C1CCCCC1)n1cc(-c2ncnc3[nH]ccc23)c(N)n1 [Example 30, (S)-3-(3-amino-4-(7H-pyrrolo[2,3-d]pyrimidin-4-yl)-1H-pyrazol-1-yl)-3-cyclohexylpropionitrile]
- IC50 (ROCK1): < 5 nM
- IC50 ([1]; Rattus norvegicus, A7R5, 1 h): 182 nM
- IC50 (ROCK2): < 5 nM

SMILES: CC1CC([C@H](CC#N)n2cc(-c3ncnc4[nH]ccc34)c(N)n2)C1 (stereo partly drawn) [Example 17, (3S)-3-(3-amino-4-(7H-pyrrolo[2,3-d]pyrimidin-4-yl)-1H-pyrazol-1-yl)-3-(-3-methylcyclobutyl)propanitrile]
- IC50 (ROCK1): < 5 nM
- IC50 ([1]; Rattus norvegicus, A7R5, 1 h): 225 nM
- IC50 (ROCK2): < 5 nM

SMILES: N#CCC1(n2cc(-c3ncnc4[nH]ccc34)c(N)n2)CCCC1 [Example 4, 2-(1-(3-amino-4-(7H-pyrrolo[2,3-d]pyrimidin-4-yl)-1H-pyrazol-1-yl)cyclopentyl)acetonitrile]
- IC50 (ROCK1): < 10 nM
- IC50 ([1]; Rattus norvegicus, A7R5, 1 h): 160 nM
- IC50 (ROCK2): < 10 nM

SMILES: N#CCC(C1CC2CC2C1)n1cc(-c2ncnc3[nH]ccc23)c(N)n1 (stereo not shown) [Example 24, 3-(3-amino-4-(7H-pyrrolo[2,3-d]pyrimidin-4-yl)-1H-pyrazol-1-yl)-3-(bicyclo[3.1.0]hexyl-3-yl)propionitrile]
- IC50 (ROCK1): < 5 nM
- IC50 ([1]; Rattus norvegicus, A7R5, 1 h): 214 nM
- IC50 (ROCK2): < 5 nM

SMILES: N#CCC1(n2cc(-c3ncnc4[nH]ccc34)c(N)n2)CC(C#N)C1 (stereo not shown) [Example 9, 3-(3-amino-4-(7H-pyrrolo[2,3-d]pyrimidin-4-yl)-1H-pyrazol-1-yl)-3-(cyanomethyl)cyclobutane-1-carbonitrile]
- IC50 (ROCK1): < 10 nM
- IC50 ([1]; Rattus norvegicus, A7R5, 1 h): 68 nM
- IC50 (ROCK2): < 10 nM

SMILES: N#CCC(C1CC1)n1cc(-c2ncnc3[nH]ccc23)c(N)n1 (stereo not shown) [Example 12, 3-(3-amino-4-(7H-pyrrolo[2,3-d]pyrimidin-4-yl)-1H-pyrazol-1-yl)-3-cyclopropylpropanitrile]
- IC50 (ROCK1): < 5 nM
- IC50 ([1]; Rattus norvegicus, A7R5, 1 h): 85 nM
- IC50 (ROCK2): < 2 nM

SMILES: Cc1ccc(C(=O)OCc2ccc([C@@H](CN)C(=O)Nc3ccc4cnccc4c3)cc2)c(C)c1 [Netarsudil, reference compound]
- IC50 ([1]; rat smooth muscle cell line A7r5, 1 hour compound incubation in serum-free medium, absolute IC50): 288 nM

SMILES: N#CCC1(n2cc(-c3ncnc4[nH]ccc34)c(N)n2)CCS(=O)(=O)C1 (stereo not shown) [Example 3, 2-(3-(3-amino-4-(7H-pyrrolo[2,3-d]pyrimidin-4-yl)-1H-pyrazol-1-yl)-1,1-dioxotetrahydrothiophen-3-yl)acetonitrile]
- IC50 (ROCK1): < 2 nM
- IC50 ([1]; Rattus norvegicus, A7R5, 1 h): 78 nM
- IC50 (ROCK2): < 1 nM

SMILES: CC(C)NC(=O)COc1cccc(-c2nc(Nc3ccc4[nH]ncc4c3)c3ccccc3n2)c1 [Belumosudil, reference compound]
- IC50 ([1]; Rattus norvegicus, A7R5, 1 h): 3940 nM

SMILES: C[C@H]1CNCCCN1S(=O)(=O)c1cccc2cncc(F)c12 [Ripasudil, reference compound]
- IC50 ([1]; Rattus norvegicus, A7R5, 1 h): 1680 nM
- IC50 (ROCK2): 29.6 nM

— patent publication EP4653440A1, “HETEROCYCLIC COMPOUND, AND PHARMACEUTICAL COMPOSITION AND USE THEREOF” (Prime Gene Therapeutics Co., Ltd., priority 2023, dated 2024)
